Measurements taken from ChEMBL document CHEMBL1201862, “PubChem BioAssay data set” (2004).
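Cells were grown in 96-well plates and exposed to each compound for 48 hours at five concentrations; endpoints were interpolated linearly between bracketing concentrations, or set to the highest concentration if not reached. The concentration for 50% growth inhibition is given as GI50.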 The source made the active and inactive calls. Cut-off read from the data, not from the text of the source: active = GI50 up to about 1.1 µM and inactive = higher.

How the values were obtained:
Assay in all cases: DTP human tumour cell line panel, 48 h
HOP-18 = system: HOP-18
HCT-116 = system: HCT-116
M14 = system: M14
NCI-H460 = system: NCI-H460
SW-620 = system: SW-620
SNB-78 = system: SNB-78
TK-10 = system: TK-10
RPMI-8226 = system: RPMI-8226
KM-20L2 = system: KM-20L2
HT-29 = system: HT-29
DLD-1 = system: DLD-1
CAKI-1 = system: CAKI-1
LOX IMVI = system: LOX IMVI
HOP-62 = system: HOP-62
SR = system: SR
U-251 = system: U-251
OVCAR-8 = system: OVCAR-8
M19-MEL = system: M19-MEL
Hs-578T = system: Hs-578T
PC-3 = system: PC-3

Measured: GI50

O=C(/C=C/c1c(O)ccc2ccccc12)c1cccc2ccccc12
inactive: HOP-18 58.6 µM | HCT-116 57.7 µM | M14 > 100 µM | NCI-H460 > 100 µM | SW-620 > 37.1 µM | SNB-78 > 100 µM | TK-10 > 100 µM | RPMI-8226 42.1 µM | KM-20L2 > 100 µM | HT-29 > 72.4 µM | DLD-1 > 79.4 µM | CAKI-1 > 100 µM | LOX IMVI > 59 µM | HOP-62 > 100 µM | SR 36 µM | U-251 > 71.9 µM | OVCAR-8 > 100 µM | M19-MEL 26.1 µM

NCCSc1nc(N)c2ncn(C3OC(CO)C(O)C3O)c2n1 (centres undefined)
inactive: HOP-18 > 100 µM | HCT-116 > 100 µM | M14 > 100 µM | NCI-H460 > 100 µM | SW-620 > 100 µM | SNB-78 > 100 µM | TK-10 > 100 µM | RPMI-8226 > 100 µM | KM-20L2 > 100 µM | HT-29 > 100 µM | DLD-1 > 100 µM | CAKI-1 > 100 µM | LOX IMVI > 100 µM | HOP-62 > 100 µM | SR > 100 µM | U-251 > 100 µM | OVCAR-8 > 100 µM | M19-MEL > 100 µM

NC1=NN(c2ccccc2)C(=O)C1C(=O)C(=O)Nc1ccc(Cl)cc1 (centres undefined)
inactive: HOP-18 > 100 µM | HCT-116 > 100 µM | M14 > 100 µM | NCI-H460 > 100 µM | SW-620 > 100 µM | SNB-78 > 100 µM | TK-10 > 100 µM | RPMI-8226 > 100 µM | KM-20L2 > 100 µM | HT-29 > 100 µM | DLD-1 > 100 µM | CAKI-1 > 100 µM | LOX IMVI > 100 µM | HOP-62 > 100 µM | SR > 100 µM | U-251 > 100 µM | OVCAR-8 > 100 µM | M19-MEL > 100 µM

COc1ccc2c(c1)[n+]([O-])c(/C(C)=N/NC(N)=S)c(C)[n+]2[O-]
inactive: HOP-18 95.1 µM | HCT-116 39.9 µM | M14 37.6 µM | NCI-H460 27.8 µM | SW-620 50.4 µM | SNB-78 > 100 µM | TK-10 > 58.9 µM | RPMI-8226 57 µM | KM-20L2 39.4 µM | HT-29 52.1 µM | DLD-1 57.9 µM | CAKI-1 70.5 µM | LOX IMVI 39.9 µM | HOP-62 75.3 µM | SR 2 µM | U-251 44.4 µM | Hs-578T > 100 µM | PC-3 > 100 µM | OVCAR-8 46.3 µM | M19-MEL 86.9 µM

CCCCCCCC/C=C/CCCCCCCC(=O)N(O)C1CC(n2cc(C)c(=O)[nH]c2=O)OC1CO (centres undefined)
inactive: HOP-18 3.65 µM | HCT-116 8.53 µM | M14 3.55 µM | NCI-H460 3.85 µM | SW-620 11 µM | SNB-78 18 µM | TK-10 10.8 µM | RPMI-8226 9.68 µM | KM-20L2 3.56 µM | HT-29 10.2 µM | DLD-1 6.4 µM | CAKI-1 8.99 µM | LOX IMVI 4.9 µM | HOP-62 6.25 µM | SR 3.27 µM | U-251 4.89 µM | OVCAR-8 11.4 µM | M19-MEL 5.3 µM

CCC1CN2CCC3(c4ccccc4)CC(C(=O)OC)=CC1C23 (centres undefined)
inactive: HOP-18 14.9 µM | HCT-116 15.9 µM | M14 14.8 µM | NCI-H460 17.7 µM | SW-620 16.9 µM | SNB-78 19.3 µM | TK-10 25.4 µM | RPMI-8226 21.3 µM | KM-20L2 16.3 µM | HT-29 16.7 µM | DLD-1 17.2 µM | CAKI-1 18.5 µM | LOX IMVI 14.6 µM | HOP-62 19.2 µM | SR 41.3 µM | U-251 16.3 µM | OVCAR-8 17.9 µM | M19-MEL 17.1 µM

CC1=C[C@]2(O)C(=O)[C@H](C)C[C@H]3[C@@H](CC[C@@](C)(O)/C=C\2C1=O)C3(C)C
inactive: HOP-18 44.9 µM | HCT-116 17.2 µM | M14 17.3 µM | NCI-H460 25.5 µM | SW-620 19.4 µM | SNB-78 26.2 µM | TK-10 32 µM | RPMI-8226 > 41.9 µM | KM-20L2 14.5 µM | HT-29 28.4 µM | DLD-1 17.5 µM | CAKI-1 25.4 µM | LOX IMVI 17.3 µM | HOP-62 > 49.8 µM | SR 16 µM | U-251 21.7 µM | OVCAR-8 20.5 µM | M19-MEL 18.5 µM

CC1=CCC2(C#N)CCC1C2O (centres undefined)
inactive: HOP-18 > 100 µM | HCT-116 > 100 µM | M14 > 100 µM | NCI-H460 > 100 µM | SNB-78 > 100 µM | TK-10 > 100 µM | RPMI-8226 > 100 µM | KM-20L2 39.4 µM | HT-29 > 100 µM | DLD-1 > 100 µM | CAKI-1 > 100 µM | LOX IMVI > 100 µM | HOP-62 > 100 µM | SR > 100 µM | U-251 > 100 µM | OVCAR-8 > 100 µM | M19-MEL > 100 µM

Cc1cc(C)nc(NS(=O)(=O)c2ccc(Nc3c4ccccc4nc4c(C(=O)Nc5ccc(S(=O)(=O)Nc6cc(C)on6)cc5)cccc34)cc2)n1
inactive: HOP-18 20.4 µM | HCT-116 16 µM | M14 20.8 µM | NCI-H460 25.1 µM | SW-620 23.4 µM | SNB-78 30.9 µM | TK-10 26.8 µM | RPMI-8226 22 µM | KM-20L2 21 µM | HT-29 19.9 µM | DLD-1 28.1 µM | CAKI-1 21.9 µM | LOX IMVI 19.8 µM | HOP-62 21.2 µM | SR 27.5 µM | U-251 19.8 µM | OVCAR-8 18.4 µM | M19-MEL 23.4 µM

CC(C)c1cccc(C(C)C)c1NC(=O)C(=O)C1CCC2=C(Sc3ccccc3N2)C1=O (centres undefined)
inactive: HOP-18 > 100 µM | HCT-116 48.9 µM | M14 > 100 µM | NCI-H460 > 100 µM | SW-620 12 µM | SNB-78 > 100 µM | TK-10 > 100 µM | RPMI-8226 44.4 µM | KM-20L2 86.3 µM | HT-29 58.5 µM | DLD-1 > 100 µM | CAKI-1 64.4 µM | LOX IMVI 53.6 µM | HOP-62 > 100 µM | SR > 100 µM | U-251 34.8 µM | OVCAR-8 38.7 µM | M19-MEL > 100 µM

COc1cccc2c1C(=O)c1c(O)c3c(c(O)c1C2=O)C[C@@](O)(C(C)=O)CC3S(=O)(=O)O (some centres undefined)
inactive: HOP-18 > 100 µM | HCT-116 > 100 µM | M14 > 100 µM | NCI-H460 > 100 µM | SW-620 > 100 µM | SNB-78 > 94.2 µM | TK-10 > 100 µM | RPMI-8226 > 100 µM | KM-20L2 > 100 µM | HT-29 > 100 µM | DLD-1 > 100 µM | CAKI-1 > 100 µM | LOX IMVI > 100 µM | HOP-62 > 100 µM | SR > 84.1 µM | U-251 > 100 µM | OVCAR-8 > 100 µM | M19-MEL > 100 µM
